Drawing on BindingDB's records for PubMed 9223586 (Georgetown University, 1997), this text covers Ki for 1 compound.

By Ki is commonly meant the equilibrium dissociation constant of an inhibitor or competing ligand from its target.

In the test the target is Nicotinic acetylcholine receptor (Rattus leucopus, UniProt Q62594).

The structures appear in SMILES notation.

Chain of Nicotinic acetylcholine receptor (Q62594 whole entry): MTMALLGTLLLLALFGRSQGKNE

`COc1cc2c3cc1Oc1cc(ccc1O)CC1c4c(cc(OC)c(O)c4Oc4ccc(cc4)CC3[N+](C)(C)CC2)CC[N+]1(C)C` (stereo unspecified) [CAS_8063-06-7] returned a Ki of 3.79 µM.
